Measured values reported in patent US10603357B2, “Therapeutic TREM-1 peptides” (Universite de Lorraine, priority 2004, dated 2020).

B1: IL-10: rIL-10 (500 U/ml, R&D Systems) (protein, UniProt P22301 19-178, looked up)
Interleukin-10: SPGQGTQSENSCTHFPGNLPNMLRDLRDAFSRVKTFFQMKDQLDNLLLKESLLEDFKGYLGCQALSEMIQFYLEEVMPQAENQDPDIKAHVNSLGENLKTLRLRLRRCHRFLPCENKSKAVEQVKNAFNKLQEKGIYKAMSEFDIFINYIEAYMTMKIRN

Assays:
[1] = system: BALB/c mice; assay: LPS-induced endotoxaemia, survival of mice (Example 1); assay type: in vivo, mouse
Experimental: BALB/c mice (10 per group) were injected intraperitoneally with 200 μg LPS. The TREM-1 peptides P1, P2, P3, or P5 (200 μl of a 300 μM solution per mouse) were injected intraperitoneally 1 hour before LPS. Viability of mice was monitored twice a day for 7 days. Statistical analysis was performed by Logrank test. Data from control mice represent cumulative survival curves from two independent experiments performed under identical conditions.
BALB/c mice (10 per group) were injected intraperitoneally with 200 μg LPS. TREM-1 peptide P1, 200 μl of a 300 μM solution per mouse was injected intraperitoneally 1 hour before or 4 hours after LPS. Viability of mice was monitored twice a day for 7 days. Statistical analysis was performed with the Logrank test. Data from control mice represent cumulative survival curves from two independent experiments performed under identical conditions
BALB/c mice (10 per group) were injected intraperitoneally with 200 μg LPS. P1 peptide, 200 μl of a 150, 300 and 600 μM solution per mouse (dots) or P3, 200 μl of a 600 μM solution per mouse (filled squares) were injected intraperitoneally 4 hours after LPS. Viability of mice was monitored twice a day for 7 days. Statistical analysis was performed with the Logrank test
In the experiments of this example, the peptides were administered in a volume of 200 μl of the solution molarity indicated. To assess the ability of TREM1-peptides to protect mice from LPS-induced endotoxaemia, the Inventors administered peptides P1, P2, P3 and P5 (300 μM) 1 hour before a lethal dose of lipopolysaccharide (LPS) (FIG. 2). Lethality was monitored over time and compared with animals that had received control injections of vehicle alone. P5 injection confers maximal protection, with 90% of the animals still alive 7 days after LPS injection, as compared with 10% of control mice (p<0.001). 60% of the P1-treated mice and 50% of the P2 treated mice survived endotoxaemia as compared with 10% of control mice (p<0.01 and p<0.05 respectively).
In order to investigate whether TREM-1 peptide treatment could be delayed until after the administration of LPS, the Inventors injected the peptides at 4 hours after LPS injection. […] 80% of the mice injected with P1 4 hours after LPS survived endotoxaemia compared to 60% of mice treated 1 h before LPS and 10% of mice treated with vehicle alone (p<0.001 and p<0.01 respectively). Thus, P1 is effective even when injected after the outbreak of endotoxaemia. […] P1 administration conferred maximal protection (80%) when administered at 600 μM (p<0.01) and the level of protection dropped to 50% at 300 μM (p<0.05) and further down to 30% at 150 μM as compared to 20% of control mice, indicating a dose dependent effect of P1 (FIG. 4). The Inventors then investigated whether P1 protects against septic shock in the “CLP” model (Cecal Ligation and Puncture is a widely used experimental model of sepsis). Mice treated with two doses of P1 at 5 and 24 hours after CLP were protected from death as compared to control treated mice (p=0.0791) although the difference was not statistically significant. 40% of the mice injected with P1 at 5 days after CLP survived compared to 5% of mice treated with P3 peptide.

[2] = system: TREM-1/TREM-1 ligand interaction; assay: competition of soluble mouse TREM-1/IgG1 binding to TREM-1 ligand positive peritoneal exudate cells (flow cytometry); details: peptides 100 and 500 μM, pre-incubated 45 minutes on ice; 2 μg/ml mouseTREM-1/hIgG1
Experimental: Cytofluorimetric analysis of peritoneal exudate cells with 2 μg/ml of mouseTREM-1/hIgG1 in the presence of a 500 μM solution per mouse (thin line), 100 μM solution per mouse (dotted line) or absence (thick line) of the peptides is shown. The grey histogram represents immunostaining with human IgG1 as a control.
A possible mechanism of action could be the ability of TREM-1 derived peptide to interfere with TREM-1/TREM-1 ligand interaction. To address this question the Inventors performed competition experiments on TREM-1 ligand positive cells: PEC (Peritoneal Exudate Cells) from CLP treated mice.
Peritoneal exudate cells (PEC) from mice suffering from a caecal ligation and puncture (CLP)-induced peritonitis were subjected to flow cytometry analysis after incubation with a PE-conjugated anti-human IgG1 (Jackson Immunoresearch, Bar Harbor, USA). Competition with TREM-1 peptides was performed by pre-incubating cells with the indicated concentrations of peptides for 45 minutes on ice before adding mTREM-1-IgG1.

[3] = system: BALB/c mice; assay: CLP polymicrobial sepsis model in mice (Example 3); assay type: in vivo, mouse; details: 24 hours after CLP; control peptide, dose not given in table (100 μg in source)
Experimental: Male Balb/C mice (20 to 23 g) were randomly grouped and treated with normal saline (n=14) or the control peptide (n=14, 100 μg) or with P5 (100 μg) in a single infection at HO (n=18), H+4 (n=18) or H+24 (n=18). The last group of mice (n=18) was treated with repeated injections of P5 (100 μg) at H+4, H+8 and H+24.
Mice (n=15 per group) were treated with a single injection of normal saline or 10 μg, 20 μg, 50 μg, 100 μg or 200 μg of P5 at HO after the CLP and monitored for survival.
Mice (5 per group) were killed under anaesthesia at 24 hours after CLP. Bacterial counts in peritoneal lavage fluid and blood were determined and results are expressed as CFU per mL of blood and CFU per mouse for the peritoneal lavage.
Male Balb/C mice (7 to 9 weeks, 20 to 23 g) were anaesthetized by i.p. administration of ketamine and xylazine in 0.2 mL sterile pyrogen-free saline. The caecum was exposed through a 1.0 cm abdominal midline incision and subjected to a ligation of the distal half followed by two punctures with a G21 needle. A small amount of stool was expelled from the punctures to ensure patency. The caecum was replaced into the peritoneal cavity and the abdominal incision closed in two layers. After surgery all mice were injected s.c. with 0.5 ml of physiologic saline solution for fluid resuscitation and s.c. every 12 h with 1.25 mg (i.e. 50 μg/g) of imipenem. The animals were randomly grouped and treated with normal saline (n=14), the control peptide (n=14, 100 μg) or P5 (100 μg) in a single injection at HO (n=18), H+4 (n=18) or H+24 (n=18). The last group of mice (n=18) was treated with repeated injections of P5 (100 μg) at H+4, H+8 and H+24. All treatments were diluted into 500 μl of normal saline and administered i.p. The Inventors next sought to determine the effect of various doses of P5. For this purpose, mice (n=15 per group) were treated with a single injection of normal saline or 10 μg, 20 μg, 50 μg 100 μg or 200 μg of P5 at HO after the CLP and monitored for survival. Five additional animals per group were killed under anaesthesia 24 hours after CLP for the determination of bacterial count and cytokines levels. Peritoneal lavage fluid was obtained using 2 mL RPMI 1640 (Life Technologies) and blood was collected by cardiac puncture. Concentrations of TNF-α and IL-1β in the serum were determined by ELISA (BD Biosciences). For the assessment of bacterial counts, blood and peritoneal lavage fluid were plated in serial log dilutions on tryptic soy supplemented with 5% sheep blood agar plates. After plating, tryptic soy agar plates were incubated at 37° C. aerobically for 24 hours, and anaerobically for 48 hours. Results are expressed as CFU per mL of blood and CFU per mouse for the peritoneal lavage.

[4] = system: human monocytes; assay: in vitro stimulation of monocytes: TNF-α, IL-1β and sTREM-1 release; assay type: cell-based; details: P5 or control peptide 10 to 100 ng/mL, rIL-10 500 U/mL; for TNF-α and IL-1β production (release of inflammatory cytokines) in monocyte supernatant: LPS 1 μg/mL or LPS + anti-TREM-1 mAb; for release of sTREM-1 from monocytes cultured with LPS: LPS 1 μg/mL
Experimental: For cell activation, primary monocytes were cultured in 24-well flat-bottom tissue culture plates in the presence of LPS (1 μg/mL). In some experiments this stimulus was provided in combination with P5 (10 to 100 ng/mL), control peptide (10 to 100 ng/mL) or rIL-10 (500 U/mL). To activate monocytes through TREM-1, an agonist anti-TREM-1 mAb (10 μg/mL) was added as indicated. Cell-free supernatants were analysed for production of TNF-α, IL-1β. and sTREM-1 by ELISA or immunodot. All experiments were performed in triplicate and data are expressed as means (SEM). • a: Media • b: P5 10 ng/mL • c: Anti-TREM-1 • d: LPS • e: LPS+Anti-TREM-1 • f: LPS+P5 10 ng/mL • g: LPS+P5 50 ng/mL • h: LPS+P5 100 ng/mL • i: LPS+IL10
Ten mL of peripheral blood samples were collected on EDTA-K from 5 healthy volunteer donors originating from laboratory staff. After dilution in RPMI (Life Technologies, Grand Island, N.Y.) v/v, blood was centrifuged for 30 min at room temperature over a Ficoll gradient (Amersham Pharmacia, Uppsala, Sweden) to isolate PBMC. The cells recovered above the gradient were washed and counted. In order to deplete the suspensions of lymphocytes, cells were then plated in 24-well flat-bottom tissue culture plates (Corning, Corning, N.Y.) at a concentration of 5×10^6/mL and allowed to adhere during 2 hours at 37° C. The resulting lymphocyte suspension was discarded and the adhering monocytic cells were maintained in a 5% CO2 incubator at 37° C. in complete medium (RPMI 1640, 0.1 mM sodium pyruvate, […], 50 μg/mL Streptomycin; Life Technologies) supplemented with 10% FCS (Invitrogen, Cergy, France).
For activation, monocytes were cultured in the presence of E. coli LPS (0111:B4, 1 μg/mL, Sigma-Aldrich, La Verpillière, France). Cell viability was assessed by trypan blue exclusion and by measuring lactate dehydrogenase release. In some experiments, this stimulus was given in combination with TNF-α (5 to 100 ng/mL, R&D Systems, Lille, France), IL-1β (5 to 100 ng/mL, R&D Systems), rIFN-γ (up to 100 U/mL, R&D Systems), rIL-10 (500 U/ml, R&D Systems) or up to 100 ng/mL of P5 or control peptide.
In order to activate monocytes through TREM-1, an anti-TREM-1 agonist monoclonal antibody (R&D Systems) was added as follows: flat-bottom plates were precoated with 10 μg/mL anti-TREM-1 per well. After thorough washing in phosphate buffered saline (PBS), the monocyte suspensions were added at a similar concentration as above. Some experiments were performed in the presence of protease inhibitors (PMSF and Protease Cocktail Inhibitor; Invitrogen). Cell-free supernatants were assayed for the production of TNF-α and IL-1β by ELISA according to the recommendations of the manufacturer (BD Biosciences, San Diego, USA). To address the effect of P5 on NF-κB activity in monocytes, an ELISA-based assay was performed (BD Mercury™ Transfactor Kit, BD Biosciences). Monocytes were cultured for 24 hours in the presence of E. coli LPS (O111:B4, 1 μg/mL), and/or an agonist anti-TREM-1 monoclonal antibody (10 μg/mL), and/or P5 (100 ng/mL). Whole-cell extracts were then prepared and levels of NF-κB p50 and p65 were determined according to the recommendations of the manufacturer. All experiments were performed in triplicate and data are expressed as means (SEM). Identification and Quantitation of sTREM-1 Release
Primary monocytes suspensions were cultured as described above. The cells were treated with E. coli LPS (0111:B4, 1 μg/mL) for 24 hours at 37° C. Cell-conditioned medium was submitted to Western-blotting using an anti-TREM-1 monoclonal antibody (R&D Systems) in order to confirm the presence of 27 kDa material recognized by anti-TREM-1. Soluble TREM-1 levels were measured by assessing the optical intensity of bands on immunodots by means of a reflectance scanner and the Quantity One Quantitation Software (Bio-Rad, Cergy, France) as reported elsewhere (18). […]

[5] = system: C57BL/6 mice; assay: cecal ligation and puncture (CLP), survival of mice (Example 1); assay type: in vivo, mouse; details: 200 μl of 600 μM i.p. 5 and 24 hours after CLP; 5 days after CLP; 15 per group
Experimental: CLP was induced in C57BL/6 mice (15 per group) as described in Materials and Methods. P1 peptide (empty dots) or P3 peptide (filled squares) (200 μl of a 600 μM solution per mouse) were injected intraperitoneally 5 and 24 hours after CLP induction. Viability of mice was monitored twice a day for 10 days. Statistical analysis was performed with the Logrank test.
In order to investigate whether TREM-1 peptide treatment could be delayed until after the administration of LPS, the Inventors injected the peptides at 4 hours after LPS injection. […] 80% of the mice injected with P1 4 hours after LPS survived endotoxaemia compared to 60% of mice treated 1 h before LPS and 10% of mice treated with vehicle alone (p<0.001 and p<0.01 respectively). Thus, P1 is effective even when injected after the outbreak of endotoxaemia. […] P1 administration conferred maximal protection (80%) when administered at 600 μM (p<0.01) and the level of protection dropped to 50% at 300 μM (p<0.05) and further down to 30% at 150 μM as compared to 20% of control mice, indicating a dose dependent effect of P1 (FIG. 4). The Inventors then investigated whether P1 protects against septic shock in the “CLP” model (Cecal Ligation and Puncture is a widely used experimental model of sepsis). […]

Row | Molecule | inhibition of TREM-1 interaction with its ligand (mTREM-1/IgG1 binding to PEC) [2] | TNF-α and IL-1β production (release of inflammatory cytokines) in monocyte supernatant [4] | release of sTREM-1 from monocytes cultured with LPS [4] | further results
1 | VIYHPPNDPVVLFHPVRLVVTKG (listed as Mus musculus) [P2] | inhibit TREM-1 interaction with its ligand in a dose dependent manner | – | – | animals alive 7 days after LPS injection ([1]; 200 μl of 300 μM peptide i.p. 1 hour before 200 μg LPS i.p., 10 mice per group (FIG. 2, 3)): 50%
2 | TDSRCVIGLYHPPLQVY [P5sc, reference compound] | – | no action | no action | Serum IL-1β [3]: 841 ± 204 pg/mL; Serum TNF-α [3]: 105 ± 12 pg/mL; Serum sTREM-1 [3]: 52 ± 3 ng/mL
3 | TTTRSLPKPTAVVSSPG [P3] | ineffective | – | – | mice surviving after CLP [5]: 5%; time within which all treated mice died after LPS injection ([1]; 200 μl of 300 μM peptide i.p. 1 hour before LPS): ≤ 4 days
4 | B1 | – | totally inhibited | totally inhibited | –
